Measurements from PubChem BioAssay (NCI).
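Results reflect a 48-hour exposure of cells in 96-well plates to compound at five concentrations. GI50 = concentration required for 50% inhibition of growth. At the TGI there is no net growth.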

Legend:
Test in all cases: NCI tumour cell line growth inhibition, 48 h
NCI-H23 lung = system: NCI-H23 lung
NCI-H226 lung = system: NCI-H226 lung
LOX IMVI melanoma = system: LOX IMVI melanoma
HCT-116 colon = system: HCT-116 colon
A549 NSCLC = system: A549 NSCLC
SK-OV-3 ovarian = system: SK-OV-3 ovarian
SNB-75 CNS = system: SNB-75 CNS
MOLT-4 leukemia = system: MOLT-4 leukemia
MALME-3M melanoma = system: MALME-3M melanoma
BT-549 breast = system: BT-549 breast
U251 CNS = system: U251 CNS
HCC-2998 colon = system: HCC-2998 colon
EKVX NSCLC = system: EKVX NSCLC
IGROV1 ovarian = system: IGROV1 ovarian
HT29 colon = system: HT29 colon
SW-620 colon = system: SW-620 colon
COLO 205 colon = system: COLO 205 colon
NCI/ADR-RES ovarian = system: NCI/ADR-RES ovarian
MCF7 breast = system: MCF7 breast
CAKI-1 renal = system: CAKI-1 renal
OVCAR-3 ovarian = system: OVCAR-3 ovarian
SF-295 CNS = system: SF-295 CNS
NCI-H460 lung = system: NCI-H460 lung
SNB-19 CNS = system: SNB-19 CNS
MDA-MB-231 breast = system: MDA-MB-231 breast
OVCAR-4 ovarian = system: OVCAR-4 ovarian
SK-MEL-28 melanoma = system: SK-MEL-28 melanoma
CCRF-CEM leukemia = system: CCRF-CEM leukemia
SN12C renal = system: SN12C renal
RXF 393 renal = system: RXF 393 renal
SK-MEL-5 melanoma = system: SK-MEL-5 melanoma
UACC-62 melanoma = system: UACC-62 melanoma
A498 renal = system: A498 renal
HCT-15 colon = system: HCT-15 colon
KM12 colon = system: KM12 colon
SF-268 CNS = system: SF-268 CNS
SF-539 CNS = system: SF-539 CNS
HOP-92 NSCLC = system: HOP-92 NSCLC
MDA-MB-435 = system: MDA-MB-435
OVCAR-5 ovarian = system: OVCAR-5 ovarian
UO-31 renal = system: UO-31 renal
HL-60(TB) leukemia = system: HL-60(TB) leukemia
M14 melanoma = system: M14 melanoma
SR leukemia = system: SR leukemia
RPMI-8226 leukemia = system: RPMI-8226 leukemia
ACHN renal = system: ACHN renal
PC-3 prostate = system: PC-3 prostate
786-0 renal = system: 786-0 renal
OVCAR-8 ovarian = system: OVCAR-8 ovarian
T-47D breast = system: T-47D breast
UACC-257 melanoma = system: UACC-257 melanoma
HS 578T breast = system: HS 578T breast
HOP-62 NSCLC = system: HOP-62 NSCLC
TK-10 renal = system: TK-10 renal
DU-145 prostate = system: DU-145 prostate

SMILES: COc1ccc(C(=O)N2N=C(c3ccc(Br)cc3)CC2c2cn(-c3ccccc3)nc2-c2ccccc2)cc1 (stereo not given)
- GI50 (NCI-H23 lung): 20.8 µM
- TGI (NCI-H23 lung): > 50 µM
- GI50 (NCI-H226 lung): 18.3 µM
- TGI (NCI-H226 lung): > 50 µM
- GI50 (LOX IMVI melanoma): 42.1 µM
- TGI (LOX IMVI melanoma): > 50 µM
- GI50 (HCT-116 colon): 2.87 µM
- TGI (HCT-116 colon): > 50 µM
- GI50 (A549 NSCLC): 4.28 µM
- TGI (A549 NSCLC): > 50 µM
- GI50 (SK-OV-3 ovarian): 12.1 µM
- TGI (SK-OV-3 ovarian): 36.3 µM
- GI50 (SNB-75 CNS): 30.3 µM
- TGI (SNB-75 CNS): > 50 µM
- GI50 (MOLT-4 leukemia): 11.4 µM
- TGI (MOLT-4 leukemia): 25.3 µM
- GI50 (MALME-3M melanoma): > 50 µM
- TGI (MALME-3M melanoma): > 50 µM
- GI50 (BT-549 breast): 30.6 µM
- TGI (BT-549 breast): > 50 µM
- GI50 (U251 CNS): 13 µM
- TGI (U251 CNS): > 50 µM
- GI50 (HCC-2998 colon): > 50 µM
- TGI (HCC-2998 colon): > 50 µM
- GI50 (EKVX NSCLC): > 50 µM
- TGI (EKVX NSCLC): > 50 µM
- GI50 (IGROV1 ovarian): 19.4 µM
- TGI (IGROV1 ovarian): > 50 µM
- GI50 (HT29 colon): > 50 µM
- TGI (HT29 colon): > 50 µM
- GI50 (SW-620 colon): > 50 µM
- TGI (SW-620 colon): > 50 µM
- GI50 (COLO 205 colon): > 50 µM
- TGI (COLO 205 colon): > 50 µM
- GI50 (NCI/ADR-RES ovarian): 33 µM
- TGI (NCI/ADR-RES ovarian): > 50 µM
- GI50 (MCF7 breast): > 50 µM
- TGI (MCF7 breast): > 50 µM
- GI50 (CAKI-1 renal): 41.7 µM
- TGI (CAKI-1 renal): > 50 µM
- GI50 (OVCAR-3 ovarian): 23.9 µM
- TGI (OVCAR-3 ovarian): > 50 µM
- GI50 (SF-295 CNS): 17 µM
- TGI (SF-295 CNS): > 50 µM
- GI50 (NCI-H460 lung): 15.3 µM
- TGI (NCI-H460 lung): > 50 µM
- GI50 (SNB-19 CNS): 20.4 µM
- TGI (SNB-19 CNS): > 50 µM
- GI50 (MDA-MB-231 breast): 5.47 µM
- TGI (MDA-MB-231 breast): > 50 µM
- GI50 (OVCAR-4 ovarian): 15.2 µM
- TGI (OVCAR-4 ovarian): > 50 µM
- GI50 (SK-MEL-28 melanoma): > 50 µM
- TGI (SK-MEL-28 melanoma): > 50 µM
- GI50 (CCRF-CEM leukemia): 9.86 µM
- TGI (CCRF-CEM leukemia): 29.7 µM
- GI50 (SN12C renal): 47.4 µM
- TGI (SN12C renal): > 50 µM
- GI50 (RXF 393 renal): 6.28 µM
- TGI (RXF 393 renal): > 50 µM
- GI50 (SK-MEL-5 melanoma): 15 µM
- TGI (SK-MEL-5 melanoma): > 50 µM
- GI50 (UACC-62 melanoma): 42.8 µM
- TGI (UACC-62 melanoma): > 50 µM
- GI50 (A498 renal): 6.82 µM
- TGI (A498 renal): 28.5 µM
- GI50 (HCT-15 colon): > 50 µM
- TGI (HCT-15 colon): > 50 µM
- GI50 (KM12 colon): > 50 µM
- TGI (KM12 colon): > 50 µM
- GI50 (SF-268 CNS): 34.8 µM
- TGI (SF-268 CNS): > 50 µM
- GI50 (SF-539 CNS): 39.5 µM
- TGI (SF-539 CNS): > 50 µM
- GI50 (HOP-92 NSCLC): 1.79 µM
- TGI (HOP-92 NSCLC): 15.8 µM
- GI50 (MDA-MB-435): > 50 µM
- TGI (MDA-MB-435): > 50 µM
- GI50 (OVCAR-5 ovarian): > 50 µM
- TGI (OVCAR-5 ovarian): > 50 µM
- GI50 (UO-31 renal): 42.6 µM
- TGI (UO-31 renal): > 50 µM
- GI50 (HL-60(TB) leukemia): 30.5 µM
- TGI (HL-60(TB) leukemia): > 50 µM
- GI50 (M14 melanoma): 15.7 µM
- TGI (M14 melanoma): > 50 µM
- GI50 (SR leukemia): 7.78 µM
- TGI (SR leukemia): 16.2 µM
- GI50 (RPMI-8226 leukemia): > 50 µM
- TGI (RPMI-8226 leukemia): > 50 µM
- GI50 (ACHN renal): 18.9 µM
- TGI (ACHN renal): > 50 µM
- GI50 (PC-3 prostate): > 50 µM
- TGI (PC-3 prostate): > 50 µM
- GI50 (786-0 renal): 19 µM
- TGI (786-0 renal): > 50 µM
- GI50 (OVCAR-8 ovarian): 8.55 µM
- TGI (OVCAR-8 ovarian): > 50 µM
- GI50 (T-47D breast): 13.4 µM
- TGI (T-47D breast): > 50 µM
- GI50 (UACC-257 melanoma): > 50 µM
- TGI (UACC-257 melanoma): > 50 µM
- GI50 (HS 578T breast): 20.5 µM
- TGI (HS 578T breast): > 50 µM
- GI50 (HOP-62 NSCLC): 9.05 µM
- TGI (HOP-62 NSCLC): 44.5 µM
- GI50 (TK-10 renal): 20.6 µM
- TGI (TK-10 renal): > 50 µM
- GI50 (DU-145 prostate): 25 µM
- TGI (DU-145 prostate): > 50 µM
